Source: the supplement of paper PMC10307832

How the values were obtained:
Assay in all cases: relative viability (nuclei count vs DMSO), 5 days (fraction); higher = more cells survive
R406 + Tozasertib = compound: COc1cc(Nc2ncc(F)c(Nc3ccc4c(n3)NC(=O)C(C)(C)O4)n2)cc(OC)c1OC [R406] + Cc1cc(Nc2cc(N3CCN(C)CC3)nc(Sc3ccc(NC(=O)C4CC4)cc3)n2)n[nH]1 [Tozasertib] (partner 0.1 µM)
In short: (§1)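 A single step with final 0.05% Triton X-100, 1% formaldehyde and 1 ug/ml Hoechst fixed the cells and stained nuclei 5 days after treatment. Lung cancer cell lines in 1536-well plates had been treated by pin tool the day after seeding with one drug alone or a fixed anchor-drug dose plus five library-drug doses (not always all listed) in √10 steps, and nuclei were counted on 4× images. Relative viability is the ratio of nuclei in treated wells to nuclei in vehicle wells, taken as the median of duplicate plates.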

Daporinad + Palbociclib = compound: O=C(/C=C/c1cccnc1)NCCCCC1CCN(C(=O)c2ccccc2)CC1 [Daporinad] + CC(=O)c1c(C)c2cnc(Nc3ccc(N4CCNCC4)cn3)nc2n(C2CCCC2)c1=O [Palbociclib] (partner 0.5 µM)
In short: as §1

Daporinad + Navitoclax = compound: O=C(/C=C/c1cccnc1)NCCCCC1CCN(C(=O)c2ccccc2)CC1 [Daporinad] + CC1(C)CCC(c2ccc(Cl)cc2)=C(CN2CCN(c3ccc(C(=O)NS(=O)(=O)c4ccc(N[C@H](CCN5CCOCC5)CSc5ccccc5)c(S(=O)(=O)C(F)(F)F)c4)cc3)CC2)C1 [Navitoclax] (partner 0.5 µM)
In short: as §1

Daporinad + Linsitinib = compound: O=C(/C=C/c1cccnc1)NCCCCC1CCN(C(=O)c2ccccc2)CC1 [Daporinad] + C[C@]1(O)C[C@@H](c2nc(-c3ccc4ccc(-c5ccccc5)nc4c3)c3c(N)nccn32)C1 [Linsitinib] (partner 1 µM)
In short: as §1

NCI-H1975
relative viability (R406 + Tozasertib; first compound 0.08 µM): 0.75 | relative viability (R406 + Tozasertib; first compound 0.253 µM): 0.918 | relative viability (R406 + Tozasertib; first compound 0.8 µM): 0.785 | relative viability (R406 + Tozasertib; first compound 2.53 µM): 0.189 | relative viability (R406 + Tozasertib; first compound 8 µM): 0.109 | relative viability (Daporinad + Palbociclib; first compound 0.0005 µM): 0.565 | relative viability (Daporinad + Palbociclib; first compound 0.001581 µM): 0.602 | relative viability (Daporinad + Palbociclib; first compound 0.005 µM): 0.613 | relative viability (Daporinad + Palbociclib; first compound 0.01581 µM): 0.705 | relative viability (Daporinad + Navitoclax; first compound 0.0005 µM): 1.28 | relative viability (Daporinad + Navitoclax; first compound 0.001581 µM): 1.18 | relative viability (Daporinad + Navitoclax; first compound 0.005 µM): 1.06 | relative viability (Daporinad + Navitoclax; first compound 0.01581 µM): 1.06 | relative viability (Daporinad + Linsitinib; first compound 0.0005 µM): 1.14 | relative viability (Daporinad + Linsitinib; first compound 0.001581 µM): 0.99 | relative viability (Daporinad + Linsitinib; first compound 0.005 µM): 0.92 | relative viability (Daporinad + Linsitinib; first compound 0.01581 µM): 0.812

CAL-12T
relative viability (R406 + Tozasertib; first compound 0.08 µM): 0.312 | relative viability (R406 + Tozasertib; first compound 0.253 µM): 0.366 | relative viability (R406 + Tozasertib; first compound 0.8 µM): 0.324 | relative viability (R406 + Tozasertib; first compound 2.53 µM): 0.255 | relative viability (R406 + Tozasertib; first compound 8 µM): 0.194 | relative viability (Daporinad + Palbociclib; first compound 0.0005 µM): 0.332 | relative viability (Daporinad + Palbociclib; first compound 0.001581 µM): 0.445 | relative viability (Daporinad + Palbociclib; first compound 0.005 µM): 0.342 | relative viability (Daporinad + Palbociclib; first compound 0.01581 µM): 0.143 | relative viability (Daporinad + Navitoclax; first compound 0.0005 µM): 1.33 | relative viability (Daporinad + Navitoclax; first compound 0.001581 µM): 0.925 | relative viability (Daporinad + Navitoclax; first compound 0.005 µM): 0.518 | relative viability (Daporinad + Navitoclax; first compound 0.01581 µM): 0.172 | relative viability (Daporinad + Linsitinib; first compound 0.0005 µM): 0.697 | relative viability (Daporinad + Linsitinib; first compound 0.001581 µM): 0.936 | relative viability (Daporinad + Linsitinib; first compound 0.005 µM): 0.778 | relative viability (Daporinad + Linsitinib; first compound 0.01581 µM): 0.24

NCI-H2342
relative viability (R406 + Tozasertib; first compound 0.08 µM): 0.494 | relative viability (R406 + Tozasertib; first compound 0.253 µM): 0.644 | relative viability (R406 + Tozasertib; first compound 0.8 µM): 0.491 | relative viability (R406 + Tozasertib; first compound 2.53 µM): 0.469 | relative viability (R406 + Tozasertib; first compound 8 µM): 0.479 | relative viability (Daporinad + Palbociclib; first compound 0.0005 µM): 0.513 | relative viability (Daporinad + Palbociclib; first compound 0.001581 µM): 0.506 | relative viability (Daporinad + Palbociclib; first compound 0.005 µM): 0.506 | relative viability (Daporinad + Palbociclib; first compound 0.01581 µM): 0.535

HCC-44
relative viability (R406 + Tozasertib; first compound 0.08 µM): 0.909 | relative viability (R406 + Tozasertib; first compound 0.253 µM): 0.532 | relative viability (R406 + Tozasertib; first compound 0.8 µM): 0.963 | relative viability (R406 + Tozasertib; first compound 2.53 µM): 0.979 | relative viability (R406 + Tozasertib; first compound 8 µM): 0.393 | relative viability (Daporinad + Palbociclib; first compound 0.0005 µM): 0.97 | relative viability (Daporinad + Palbociclib; first compound 0.001581 µM): 0.988 | relative viability (Daporinad + Palbociclib; first compound 0.005 µM): 1.04 | relative viability (Daporinad + Palbociclib; first compound 0.01581 µM): 0.963 | relative viability (Daporinad + Navitoclax; first compound 0.0005 µM): 1.02 | relative viability (Daporinad + Navitoclax; first compound 0.001581 µM): 0.99 | relative viability (Daporinad + Navitoclax; first compound 0.005 µM): 1.02 | relative viability (Daporinad + Navitoclax; first compound 0.01581 µM): 0.897 | relative viability (Daporinad + Linsitinib; first compound 0.0005 µM): 0.655 | relative viability (Daporinad + Linsitinib; first compound 0.001581 µM): 0.635 | relative viability (Daporinad + Linsitinib; first compound 0.005 µM): 0.762 | relative viability (Daporinad + Linsitinib; first compound 0.01581 µM): 0.714

EKVX
relative viability (R406 + Tozasertib; first compound 0.08 µM): 0.369 | relative viability (R406 + Tozasertib; first compound 0.253 µM): 0.45 | relative viability (R406 + Tozasertib; first compound 0.8 µM): 0.499 | relative viability (R406 + Tozasertib; first compound 2.53 µM): 0.317 | relative viability (R406 + Tozasertib; first compound 8 µM): 0.273 | relative viability (Daporinad + Palbociclib; first compound 0.0005 µM): 0.435 | relative viability (Daporinad + Palbociclib; first compound 0.001581 µM): 0.379 | relative viability (Daporinad + Palbociclib; first compound 0.005 µM): 0.423 | relative viability (Daporinad + Palbociclib; first compound 0.01581 µM): 0.465 | relative viability (Daporinad + Navitoclax; first compound 0.0005 µM): 0.808 | relative viability (Daporinad + Navitoclax; first compound 0.001581 µM): 0.914 | relative viability (Daporinad + Navitoclax; first compound 0.005 µM): 0.97 | relative viability (Daporinad + Navitoclax; first compound 0.01581 µM): 1.11 | relative viability (Daporinad + Linsitinib; first compound 0.0005 µM): 1.04 | relative viability (Daporinad + Linsitinib; first compound 0.001581 µM): 1.09 | relative viability (Daporinad + Linsitinib; first compound 0.005 µM): 0.913 | relative viability (Daporinad + Linsitinib; first compound 0.01581 µM): 1.18

NCI-H1651
relative viability (R406 + Tozasertib; first compound 0.08 µM): 0.719 | relative viability (R406 + Tozasertib; first compound 0.253 µM): 0.865 | relative viability (R406 + Tozasertib; first compound 0.8 µM): 0.641 | relative viability (R406 + Tozasertib; first compound 2.53 µM): 0.592 | relative viability (R406 + Tozasertib; first compound 8 µM): 0.496 | relative viability (Daporinad + Palbociclib; first compound 0.0005 µM): 0.537 | relative viability (Daporinad + Palbociclib; first compound 0.001581 µM): 0.528 | relative viability (Daporinad + Palbociclib; first compound 0.005 µM): 0.5 | relative viability (Daporinad + Palbociclib; first compound 0.01581 µM): 0.522 | relative viability (Daporinad + Navitoclax; first compound 0.0005 µM): 1.14 | relative viability (Daporinad + Navitoclax; first compound 0.001581 µM): 1.16 | relative viability (Daporinad + Navitoclax; first compound 0.005 µM): 0.813 | relative viability (Daporinad + Navitoclax; first compound 0.01581 µM): 0.758 | relative viability (Daporinad + Linsitinib; first compound 0.0005 µM): 0.928 | relative viability (Daporinad + Linsitinib; first compound 0.001581 µM): 0.935 | relative viability (Daporinad + Linsitinib; first compound 0.005 µM): 0.839 | relative viability (Daporinad + Linsitinib; first compound 0.01581 µM): 0.838

NCI-H1648
relative viability (R406 + Tozasertib; first compound 0.8 µM): 0.498 | relative viability (R406 + Tozasertib; first compound 2.53 µM): 0.608 | relative viability (R406 + Tozasertib; first compound 8 µM): 0.639 | relative viability (Daporinad + Palbociclib; first compound 0.0005 µM): 0.305 | relative viability (Daporinad + Palbociclib; first compound 0.001581 µM): 0.291 | relative viability (Daporinad + Palbociclib; first compound 0.005 µM): 0.278 | relative viability (Daporinad + Palbociclib; first compound 0.01581 µM): 0.237

NCI-H1703
relative viability (Daporinad + Navitoclax; first compound 0.0005 µM): 1.16 | relative viability (Daporinad + Navitoclax; first compound 0.001581 µM): 1.2 | relative viability (Daporinad + Navitoclax; first compound 0.005 µM): 0.816 | relative viability (Daporinad + Navitoclax; first compound 0.01581 µM): 0.335 | relative viability (Daporinad + Linsitinib; first compound 0.0005 µM): 0.77 | relative viability (Daporinad + Linsitinib; first compound 0.001581 µM): 1.27 | relative viability (Daporinad + Linsitinib; first compound 0.005 µM): 0.996 | relative viability (Daporinad + Linsitinib; first compound 0.01581 µM): 0.626

Calu-6
relative viability (Daporinad + Navitoclax; first compound 0.0005 µM): 0.853 | relative viability (Daporinad + Navitoclax; first compound 0.001581 µM): 0.681 | relative viability (Daporinad + Navitoclax; first compound 0.005 µM): 0.527 | relative viability (Daporinad + Navitoclax; first compound 0.01581 µM): 0.196 | relative viability (Daporinad + Linsitinib; first compound 0.0005 µM): 0.841 | relative viability (Daporinad + Linsitinib; first compound 0.001581 µM): 1.03 | relative viability (Daporinad + Linsitinib; first compound 0.005 µM): 0.926 | relative viability (Daporinad + Linsitinib; first compound 0.01581 µM): 0.821

EBC-1
relative viability (Daporinad + Navitoclax; first compound 0.0005 µM): 0.347 | relative viability (Daporinad + Navitoclax; first compound 0.001581 µM): 0.4 | relative viability (Daporinad + Navitoclax; first compound 0.005 µM): 0.405 | relative viability (Daporinad + Navitoclax; first compound 0.01581 µM): 0.389 | relative viability (Daporinad + Linsitinib; first compound 0.0005 µM): 0.747 | relative viability (Daporinad + Linsitinib; first compound 0.001581 µM): 1.21 | relative viability (Daporinad + Linsitinib; first compound 0.005 µM): 0.801 | relative viability (Daporinad + Linsitinib; first compound 0.01581 µM): 1.07
